These results are taken from patent US20240108598A1, “Danegaptide for Use in the Treatment or Prevention of a Kidney Disease” (CIANA THERAPEUTICS APS, priority 2021, published 2024).

In experiment [1] the target is T1, Cx43 hemichannels (Homo sapiens, UniProt P17302).
T1 construct: host or cells: HK2 human kidney proximal tubule epithelial cell line
The experiment can be described thus: Carboxyfluorescein dye uptake assay in HK2 cells. Type of experiment: cell-based. The conditions noted are these: for carboxyfluorescein dye uptake, of control: 48 h. As for the experimental part:
(§1) In panel A, HK2 cells were cultured in low glucose (5 mM) with/without TGFβ1 (10 ng/ml)±danegaptide (50, 100 and 1000 nM) for 48 h and cell viability assessed. Results are presented as mean±SEM, n=3. […] Addition of danegaptide (50 or 100 nM) reduced dye uptake, returning fluorescence intensity to control levels. Intensity is expressed as percentage compared to low glucose control and is representative of 3 separate experiments. Data is presented as mean±SEM, n=3 with key significances indicated (**P<0.01, ***P<0.001); one-way ANOVA and Tukey's post-test).
HK2 and HPTEC cells were seeded onto fluorodishes (22 mm diameter) and cultured in low glucose DMEM/F12 (5 mmol/1) for 48 h. Following an overnight serum-starvation, cells were incubated with TGFβ1 (10 ng/ml)±danegaptide (100 nM) for 48 h. For subsequent steps, a balanced salt solution (BSS, pH7.0) was used, comprising of NaCl (137 mM), KCl (5.4 mM), MgSO4 (0.8 mM), Na2HPO4 (0.3 mM), KH2PO4 (0.4 mM), NaHCO3 (4.2 mM), HEPES (10 mM) and glucose (5 mM). To induce dye uptake, cells were exposed to Ca^2+-free BSS (zero CaCl2+EGTA (1 mM)) plus carboxyfluorescein (200 μM) for 10 min, followed by a 10 min period in Ca^2+-containing BSS (1.3 mM) plus carboxyfluorescein (200 μM). Dishes were subsequently washed with Ca^2+-containing BSS (12 mls). Images were acquired with a Cool Snap HQ CCD camera (Roper Scientific) and Metamorph software (Universal Imaging Corp., Marlow, Bucks, UK). ImageJ was used to quantify dye uptake, where a region of interest (ROI) was drawn around each cell (approx. 10-15 cells/dish) and mean pixel intensity measured. A background fluorescence value was subtracted from each ROI.

For experiment [2], the target named is T1, Cx43 hemichannels. Briefly: Carboxyfluorescein dye uptake assay in primary hPTECs. Type of experiment: cell-based. The conditions noted are these: 48 h. As for the experimental part: as §1
HK2 and HPTEC cells were seeded onto fluorodishes (22 mm diameter) and cultured in low glucose DMEM/F12 (5 mmol/1) for 48 h. Following an overnight serum-starvation, cells were incubated with TGFβ1 (10 ng/ml)±danegaptide (100 nM) for 48 h. For subsequent steps, a balanced salt solution (BSS, pH7.0) was used, comprising of NaCl (137 mM), KCl (5.4 mM), MgSO4 (0.8 mM), Na2HPO4 (0.3 mM), KH2PO4 (0.4 mM), NaHCO3 (4.2 mM), HEPES (10 mM) and glucose (5 mM). […] ImageJ was used to quantify dye uptake, where a region of interest (ROI) was drawn around each cell (approx. 10-15 cells/dish) and mean pixel intensity measured. A background fluorescence value was subtracted from each ROI.

The test system of experiment [3] is primary hPTECs. Briefly: Western blotting of adherens and tight junction proteins. Conditions: 48 h. The experiment is classed as cell-based, human. As for the experimental part:
Primary hPTECs were cultured in low (5 mM) glucose±TGFβ1 (10 ng/mL)±danegaptide (100 nM) for 48 h. Expression of E-cadherin (ECAD), N-cadherin (NCAD) and vimentin (panel A), and Claudin-2 and Zonula Occludens (ZO-1) and b-catenin (panel B) were assessed via western blotting. TGFβ1 reduced E-cadherin, Claudin-2 and ZO-1 expression and increased N-cadherin and vimentin expression (**P<0.01, ***P<0.001; mean±SEM, n=3). Effects were partially or completely reversed by danegaptide (100 nM; ▴P<0.05 and ▴▴▴P<0.001; mean±SEM, n=3). Representative blots for each protein are shown, with expression normalised by re-probing for α-tubulin as a loading control. In panel C, transepithelial electrical resistance (TER) assessed the consequence of altered adherens & tight-junction protein expression on epithelial integrity. HK2 cells were cultured in low (5 mM) glucose on transwell inserts and transepithelial resistance measured.
(§2) To determine if danegaptide can negate TGFβ1-mediated changes in adherens and tight junction proteins, hPTECs were incubated with TGFβ1 (10 ng/mL)±danegaptide (100 nM) for 48 h and expression of candidate proteins assessed by Western blotting. Preparation of cytosolic protein from HK2 and HPTEC cells, their separation by SDS-gel electrophoresis and transfer onto Immobilon-FI PVDF membranes have been described previously (Price, G. W.; Chadjichristos, C. E.; Kavvadas, P.; Tang, S. C. W.; Yiu, W. H.; Green, C. R.; Potter, J. A.; Siamantouras, E.; Squires, P. E.; Hills, C. E. Blocking Connexin-43 mediated hemichannel activity protects against early tubular injury in experimental chronic kidney disease. Cell Commun. Signal. 2020, 18). Membranes were blocked using Odyssey blocking buffer (LI-COR), then probed overnight with antibodies against E-cadherin (1:1000), N-cadherin (1:1000), claudin-2 (1:500) and ZO-1 (1:1000), Col I (1:1000), Col IV (1:2000), Fibronectin (1:4000), Laminin (1:500), ILK1 (1:500), beta-catenin (1:2000), Vimentin (1:500), MMP3 (1:500). Bands were visualised using an OdysseyFC and semi-quantified using ImageStudio (v5.2, LI-COR). Additionally, transepithelial electrical resistance (TER) was measured as a functional measure of epithelial cell-cell coupling and paracellular permeability.
For orientation: In western blotting, separated proteins are transferred to a membrane and probed.

Experiment [4] deals with primary hPTECs. The experiment can be described thus: Western blotting of extracellular matrix proteins. Type of experiment: cell-based, human. Conditions: 48 h. As for the experimental part:
Primary hPTECs were cultured in low (5 mM) glucose±TGFβ1 (10 ng/mL)±danegaptide (100 nM) for 48 h. In panel A, expression of the ECM proteins collagen I (Col1), collagen IV (Col4), fibronectin (Fibro), and Laminin (panel B) were assessed via western blotting. […] Danegaptide partially reversed the TGFβ1 evoked change in Integrin Linked Kinase 1 (ILK1; ▴▴▴P<0.001) but had negligible effect on Matrix Metalloproteinase 3 (MMP3). All bars correspond mean±SEM, (n=3) and representative blots are shown with expression normalised by re-probing for α-tubulin as a loading control.
as §2
To examine the effect of danegaptide on TGFβ1-evoked changes in expression of ECM proteins, hPTEC cells were cultured in low (5 mM) glucose for 48 h, serum starved overnight and treated with TGFβ1 (10 ng/mL)±danegaptide (100 nM) for 48 h. Expression of the ECM proteins collagen I, collagen IV, fibronectin, Laminin, Integrin Linked Kinase 1, and Matrix Metalloproteinase 3 were assessed via western blotting.

[5] abbreviates: TGFβ1 10 ng/mL + danegaptide 100 nM.

T1 sequence (P17302 whole entry): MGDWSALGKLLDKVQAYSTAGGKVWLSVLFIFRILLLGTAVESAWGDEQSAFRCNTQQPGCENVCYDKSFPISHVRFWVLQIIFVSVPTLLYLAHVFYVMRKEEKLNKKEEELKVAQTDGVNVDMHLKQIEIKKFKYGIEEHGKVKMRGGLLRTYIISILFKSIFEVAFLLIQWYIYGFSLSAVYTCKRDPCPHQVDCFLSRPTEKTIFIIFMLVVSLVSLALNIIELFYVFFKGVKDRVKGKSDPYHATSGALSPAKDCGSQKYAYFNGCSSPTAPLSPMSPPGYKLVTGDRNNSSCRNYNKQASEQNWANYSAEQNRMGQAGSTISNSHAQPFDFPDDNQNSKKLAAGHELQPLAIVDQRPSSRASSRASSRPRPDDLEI

`NCC(=O)N1C[C@H](NC(=O)c2ccccc2)C[C@H]1C(=O)O` [danegaptide, (2S,4R)-1-(2-aminoacetyl)-4-benzamidopyrrolidine2-carboxylic acid]: the “carboxyfluorescein dye uptake, of control” value on Cx43 hemichannels [1] (TGFβ1 10 ng/mL + danegaptide 50 nM) amounted to 165.5±17.9%. For the same molecule, the “carboxyfluorescein dye uptake, of control” value on Cx43 hemichannels [1] (setting [5]) was determined as 147.6±18.1%. In addition, the carboxyfluorescein dye uptake result at Cx43 hemichannels [1] (danegaptide alone) was “did not alter dye uptake”. For the same molecule, the “concentration of optimal inhibition of carboxyfluorescein dye uptake” value at Cx43 hemichannels [1] (dose range 10 to 1000 nM tested) fell in the range of 50 to 100 nM. Further, the “carboxyfluorescein dye uptake, of control” value on Cx43 hemichannels [2] (setting [5]) was found to be 145±19.7%. In the experiment with primary hPTECs [3] (setting [5]), the “Claudin-2 expression, of control” value stood at 74.6±5%; the “E-cadherin (ECAD) expression, of control” value is 89±7.6%; the “N-cadherin (NCAD) expression, of control” value is 161.9±27.4%; the “ZO-1 expression, of control” value was found to be 52.8±5.4%. Moreover, the “vimentin expression, of control” value with primary hPTECs [3] (setting [5]) is reported as 147.3±8.8%. The “Beta-catenin expression, of control” value with primary hPTECs [3] (TGFβ1+danegaptide 100 nM) came out at 151.6±16.8%. For the same molecule, in the experiment with primary hPTECs [4] (setting [5]), the “Integrin Linked Kinase 1 (ILK1) expression, compared to control” value is reported as 251.8±33%; the “Matrix Metalloproteinase 3 (MMP3) expression, compared to control” value was determined as 147.1±12.2%; the “collagen I expression, compared to control” value is 180.7±27.3%; the “collagen IV expression, compared to control” value was 164.2±6.9%. Moreover, in the experiment on primary hPTECs [4] (setting [5]), the “fibronectin expression, compared to control” value amounted to 161.3±4% and the “laminin expression, compared to control” value is reported as 149±20.4%.

Take “TGFβ1: Recombinant hTGFβ1 (Sigma); pro-fibrotic cytokine used to stimulate the cells [reference compound]”: the “carboxyfluorescein dye uptake, of control” value with Cx43 hemichannels [1] (TGFβ1 10 ng/mL alone) is 354.9±32.6%. Further, the “carboxyfluorescein dye uptake, of control” value in the experiment with Cx43 hemichannels [2] (TGFβ1 10 ng/mL alone) stood at 310.8±38.6%. In the experiment on primary hPTECs [3] (TGFβ1 10 ng/mL alone), the “Claudin-2 expression, of control” value was found to be 44.5±5%; the “E-cadherin (ECAD) expression, of control” value is 33.3±3.3%; the “N-cadherin (NCAD) expression, of control” value stood at 224.4±29.6%; the “ZO-1 expression, of control” value is listed as 27.8±11.3%. Also, the “vimentin expression, of control” value in the experiment with primary hPTECs [3] (TGFβ1 10 ng/mL alone) is listed as 212.9±13%. The “Beta-catenin expression, of control” value with primary hPTECs [3] (TGFβ1 alone) turned out to be 149.2±11.2%. For the same molecule, in the experiment on primary hPTECs [4] (TGFβ1 10 ng/mL alone), the “Integrin Linked Kinase 1 (ILK1) expression, compared to control” value came out at 378.9±16.8%; the “Matrix Metalloproteinase 3 (MMP3) expression, compared to control” value was determined as 185.3±19.6%; the “collagen I expression, compared to control” value is 334.6±30.14%; the “collagen IV expression, compared to control” value was found to be 354.5±16.9%. Besides, in the experiment on primary hPTECs [4] (TGFβ1 10 ng/mL alone), the “fibronectin expression, compared to control” value is recorded as 301.7±50.4% and the “laminin expression, compared to control” value stood at 324.8±36.4%.
